Assay results as given in ChEMBL document CHEMBL1201862, “PubChem BioAssay data set” (2004).
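Protocol summary: plate cells (96-well), add compound at 5 concentrations, incubate 48 h, interpolate endpoints linearly. GI50 is the concentration that inhibits growth by half.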 Calls of active or inactive are those of the source. Rule as the data show it: active = GI50 up to about 1.1 µM and inactive = higher. Where a SMILES comes first, the peptide text is derived from it. [ ]: non-standard residue; d: D form. pGlu = O=C1CC[CH](C(=O)O)N1

Key:
Assay in all cases: DTP human tumour cell line panel, 48 h
T47D = test system: T47D
COLO 205 = test system: COLO 205
K562 = test system: K562
HCC 2998 = test system: HCC 2998
MDA-MB-231 = test system: MDA-MB-231
PC-3 = test system: PC-3
SK-MEL-5 = test system: SK-MEL-5
SK-MEL-2 = test system: SK-MEL-2
SW-620 = test system: SW-620
RPMI-8226 = test system: RPMI-8226
MOLT-4 = test system: MOLT-4
NCI/ADR-RES = test system: NCI/ADR-RES
BT-549 = test system: BT-549
OVCAR-4 = test system: OVCAR-4
TK-10 = test system: TK-10
HOP-62 = test system: HOP-62
IGROV-1 = test system: IGROV-1
OVCAR-5 = test system: OVCAR-5
SF-268 = test system: SF-268
HCT-15 = test system: HCT-15

Compound	GI50 (T47D)	GI50 (COLO 205)	GI50 (K562)	GI50 (HCC 2998)	GI50 (MDA-MB-231)	GI50 (PC-3)	GI50 (SK-MEL-5)	GI50 (SK-MEL-2)	GI50 (SW-620)	GI50 (RPMI-8226)	GI50 (MOLT-4)	GI50 (NCI/ADR-RES)	GI50 (BT-549)	GI50 (OVCAR-4)	GI50 (TK-10)	GI50 (HOP-62)	GI50 (IGROV-1)	GI50 (OVCAR-5)	GI50 (SF-268)	GI50 (HCT-15)
C=C(C)C1CC2=C(O1)C(=O)c1cccc(O)c1C2=O (stereo not drawn)	1.23 µM (inactive)	1.75 µM (inactive)	0.0935 µM (active)	1.99 µM (inactive)	1.82 µM (inactive)	1.69 µM (inactive)	0.144 µM (active)	1.17 µM (inactive)	0.929 µM (active)	0.265 µM (active)	0.2 µM (active)	1.05 µM (active)	0.406 µM (active)	0.327 µM (active)	2.5 µM (inactive)	1.57 µM (inactive)	0.256 µM (active)	1.57 µM (inactive)	0.333 µM (active)	2.05 µM
CC(NC(=O)C1CCC(=O)N1)C(=O)N1CCCC1C(N)=O (stereo not drawn) ([pGlu]-Ala-Pro-NH2; configuration not given here)	> 100 µM (inactive)	> 100 µM (inactive)	> 100 µM (inactive)	> 100 µM (inactive)	> 100 µM (inactive)	> 100 µM (inactive)	> 100 µM (inactive)	–	> 100 µM (inactive)	> 100 µM (inactive)	> 100 µM (inactive)	> 100 µM (inactive)	> 100 µM (inactive)	> 100 µM (inactive)	> 100 µM (inactive)	> 100 µM (inactive)	> 100 µM (inactive)	> 100 µM (inactive)	> 100 µM (inactive)	> 100 µM
c1ccc2nn(C3CCCCO3)nc2c1 (stereo not drawn)	> 100 µM (inactive)	> 100 µM (inactive)	> 100 µM (inactive)	> 100 µM (inactive)	> 100 µM (inactive)	> 100 µM (inactive)	> 100 µM (inactive)	> 100 µM (inactive)	–	–	> 100 µM (inactive)	> 100 µM (inactive)	> 100 µM (inactive)	> 100 µM (inactive)	> 100 µM (inactive)	> 100 µM (inactive)	> 100 µM (inactive)	> 100 µM (inactive)	> 100 µM (inactive)	> 100 µM
CC(C)c1ccc2c(c1)/C(=C1/Nc3ccccc3C1=O)C(=O)N2	0.557 µM (active)	> 100 µM (inactive)	33.7 µM (inactive)	19.2 µM (inactive)	5.85 µM (inactive)	8.85 µM (inactive)	27.2 µM (inactive)	14.3 µM (inactive)	43.3 µM (inactive)	27.8 µM (inactive)	22.1 µM (inactive)	17 µM (inactive)	18.1 µM (inactive)	1.7 µM (inactive)	5.01 µM (inactive)	4.57 µM (inactive)	1.45 µM (inactive)	27.7 µM (inactive)	15.3 µM (inactive)	36.5 µM
COc1ccc(OC2OC(COC(c3ccccc3)(c3ccc(OC)cc3)c3ccc(OC)cc3)C(O)C(O)C2O)cc1 (stereo not drawn)	6.76 µM (inactive)	3.85 µM (inactive)	2.84 µM (inactive)	3.44 µM (inactive)	4.6 µM (inactive)	2.09 µM (inactive)	5.06 µM (inactive)	2.61 µM (inactive)	3.77 µM (inactive)	4.47 µM (inactive)	1.33 µM (inactive)	3.48 µM (inactive)	12.5 µM (inactive)	–	5.33 µM (inactive)	11.4 µM (inactive)	5.93 µM (inactive)	6.25 µM (inactive)	3.39 µM (inactive)	2.86 µM
CNCCCNC1(c2cc3ccccc3s2)CCCCC1	4.92 µM (inactive)	1.79 µM (inactive)	1.98 µM (inactive)	1.29 µM (inactive)	2.99 µM (inactive)	9.44 µM (inactive)	2.21 µM (inactive)	4.59 µM (inactive)	12.3 µM (inactive)	2.04 µM (inactive)	1.94 µM (inactive)	14.9 µM (inactive)	14.6 µM (inactive)	13.5 µM (inactive)	6.31 µM (inactive)	8.93 µM (inactive)	12.8 µM (inactive)	14.3 µM (inactive)	11.3 µM (inactive)	8.43 µM
Cc1ccc(S(=O)(=O)N2CCC[C@@H]2C(=O)O[C@@H]2CCC3CC=CC32)cc1 (stereo partly drawn)	20.9 µM (inactive)	16.6 µM (inactive)	14 µM (inactive)	31.5 µM (inactive)	45.9 µM (inactive)	21.4 µM (inactive)	14.8 µM (inactive)	–	40.3 µM (inactive)	18.7 µM (inactive)	17.6 µM (inactive)	19.3 µM (inactive)	18.9 µM (inactive)	47 µM (inactive)	42.5 µM (inactive)	29.9 µM (inactive)	39.9 µM (inactive)	45.8 µM (inactive)	15.1 µM (inactive)	32.7 µM
CC[C@]1(Cc2ccc(OC)c(OC)c2)C=[N+]([O-])O[C@H](OC2CCCCC2c2ccccc2)[C@@H]1OC(C)=O (stereo partly drawn)	24.7 µM (inactive)	19.9 µM (inactive)	30.8 µM (inactive)	43.5 µM (inactive)	75.3 µM (inactive)	31.8 µM (inactive)	38.1 µM (inactive)	46.1 µM (inactive)	40.2 µM (inactive)	21.1 µM (inactive)	17.3 µM (inactive)	41.8 µM (inactive)	70.8 µM (inactive)	33 µM (inactive)	> 100 µM (inactive)	64.6 µM (inactive)	39.4 µM (inactive)	> 100 µM (inactive)	–	37.2 µM
CCOC(=O)Cc1nc2sc(S(N)(=O)=O)nn2c1Br	27.3 µM (inactive)	39.4 µM (inactive)	41.5 µM (inactive)	22.2 µM (inactive)	17.6 µM (inactive)	22 µM (inactive)	16.1 µM (inactive)	28.5 µM (inactive)	23.6 µM (inactive)	17.3 µM (inactive)	–	47.4 µM (inactive)	32.1 µM (inactive)	–	35.1 µM (inactive)	> 100 µM (inactive)	28.4 µM (inactive)	22.1 µM (inactive)	56.5 µM (inactive)	23.7 µM
CCCCCC(=O)CCCCCCCC(O)CC(=O)OCC (stereo not drawn)	> 100 µM (inactive)	–	> 100 µM (inactive)	> 100 µM (inactive)	> 100 µM (inactive)	> 100 µM (inactive)	> 100 µM (inactive)	–	> 100 µM (inactive)	> 100 µM (inactive)	> 100 µM (inactive)	> 100 µM (inactive)	37.8 µM (inactive)	–	> 100 µM (inactive)	> 100 µM (inactive)	> 100 µM (inactive)	> 100 µM (inactive)	> 100 µM (inactive)	> 100 µM
O=CC(O)C(O)C1OC(=O)c2cc(O)c(O)c(O)c2C2=C(O)C(O)=C3OC(=O)c4c(c(O)c(O)c5c4C3C2C(=O)O5)-c2c(cc(O)c(O)c2O)C(=O)OCC1O (stereo not drawn)	37.5 µM (inactive)	23.2 µM (inactive)	20.7 µM (inactive)	24.8 µM (inactive)	19.1 µM (inactive)	43.7 µM (inactive)	25.9 µM (inactive)	33 µM (inactive)	16.9 µM (inactive)	24.5 µM (inactive)	20.7 µM (inactive)	88.5 µM (inactive)	> 100 µM (inactive)	16.7 µM (inactive)	–	72.6 µM (inactive)	51.6 µM (inactive)	24 µM (inactive)	28.4 µM (inactive)	20.3 µM
Cc1ccc(-c2cc(-c3ccco3)c(C#N)c(=S)[nH]2)cc1	20.4 µM (inactive)	97.3 µM (inactive)	41 µM (inactive)	67.5 µM (inactive)	43.2 µM (inactive)	28.3 µM (inactive)	22.8 µM (inactive)	–	53.3 µM (inactive)	35.5 µM (inactive)	32.2 µM (inactive)	> 100 µM (inactive)	42.8 µM (inactive)	75.5 µM (inactive)	> 100 µM (inactive)	> 100 µM (inactive)	25.7 µM (inactive)	> 100 µM (inactive)	40.6 µM (inactive)	42 µM
COc1c(OC)c(OC)c(C(=O)/C=C/c2ccccc2)c(OC)c1OC	9.02 µM (inactive)	14.2 µM (inactive)	4.17 µM (inactive)	14.7 µM (inactive)	14.5 µM (inactive)	8.67 µM (inactive)	13.5 µM (inactive)	12.6 µM (inactive)	6.95 µM (inactive)	3.6 µM (inactive)	8.83 µM (inactive)	11.5 µM (inactive)	3.79 µM (inactive)	5.97 µM (inactive)	12.8 µM (inactive)	–	11.3 µM (inactive)	16.5 µM (inactive)	3.69 µM (inactive)	10.6 µM
Cc1cn(C(Cc2ccccc2)OCCO)c(=O)[nH]c1=O (stereo not drawn)	> 100 µM (inactive)	> 100 µM (inactive)	> 100 µM (inactive)	> 100 µM (inactive)	> 100 µM (inactive)	> 100 µM (inactive)	> 100 µM (inactive)	> 100 µM (inactive)	> 100 µM (inactive)	> 100 µM (inactive)	> 100 µM (inactive)	> 100 µM (inactive)	> 100 µM (inactive)	> 100 µM (inactive)	–	> 100 µM (inactive)	> 100 µM (inactive)	> 100 µM (inactive)	–	> 100 µM
O=[N+]([O-])C(C(Cl)=C(Cl)Cl)=C(n1cncn1)n1cncn1	19 µM (inactive)	13.7 µM (inactive)	–	> 58.3 µM (inactive)	19.5 µM (inactive)	32.1 µM (inactive)	11.9 µM (inactive)	> 100 µM (inactive)	18.8 µM (inactive)	17.1 µM (inactive)	> 33 µM (inactive)	25.1 µM (inactive)	18.7 µM (inactive)	24.4 µM (inactive)	25.7 µM (inactive)	> 75.2 µM (inactive)	16.6 µM (inactive)	15.6 µM (inactive)	17.1 µM (inactive)	17.8 µM
